Measurements from article PMC7782499, “Progerinin, an optimized progerin-lamin A binding inhibitor, ameliorates premature senescence phenotypes of Hutchinson-Gilford progeria syndrome” (Communications Biology, 2021).
Several values for one entry are separate records, joined by “and”; a condition that tells them apart may be missing. Equal entries are not always repeated.

System: Lmna G609G/+ mouse
Assay: Body weight of Lmna G609G/+ mice
Type: in vivo
Conditions: for Lmna G609G/+ body weight, Ave: group average; for Lmna G609G/+ body weight: individual mouse
Source text: Fig. 3 In vivo favorable effect of SLC-D011. A Gross morphology of Lmna^G609G/G609G mice (10 weeks old) was ameliorated after injection with SLC-D011. At the same age, the experimental group (D011) of mice were larger than vehicle-injected control (Con) subjects regardless of gender. B, C SLC-D011 increases body weight B and extends life span C of Lmna^G609G/G609G progeria model mouse (Con: n = 8; SLC-D011: n = 8). Compared with 14.8 weeks of average (ave) life span with maximum (max) life span of 15.5 weeks, 20 mg/kg of intraperitoneal (i.p) injection (twice a week) of SLC-D011 could extend the life span upto 19 weeks (max = 21 weeks). Lmna^G609G/G609G mice were injected with SLC-D011 from age of 5-week old, *p < 0.05. D Gross morphology of SLC-D011 injected Lmna^G609G/+ mouse. […] E SLC-D011 increases body weights of Lmna^G609G/+ mice (Con: n = 10; SLC-D011: n = 11), *p < 0.05. F Favorable effect of SLC-D011 on life span of Lmna^G609G/+ mice. Compared with vehicle-injected control group (ave = 46.7 weeks and max = 48 weeks), SLC-D011 treatment obviously extended the average life span to 63 weeks (max = 64 weeks). The injection was started from 32 weeks old, **p < 0.001. “Con” means vehicle (a solvent composed of DMSO and PBS)-injected mouse group. TEXT PRINTED IN THE PICTURE: (C) D011: Kaplan-Meier survival curve in Lmna^G609G/G609G: Ave=19; Kaplan-Meier survival curve in Lmna^G609G/G609G: Max=21 | (F) D011: Kaplan-Meier survival curve in Lmna^G609G/+: Ave=63; Kaplan-Meier survival curve in Lmna^G609G/+: Max=64 DOUBTS OF THE COPYIST ABOUT THIS PICTURE: Panels C and F: the Ave/Max labels are not printed with a group name. They are assigned to D011 (solid curve) or Con (dashed curve) only by their position beside the curves. / Panel C Ave=14.8, Max=15.5 and panel F Ave=46.7, Max=48 stand beside the dashed Con curve. They are left out because Con is the control group, not a substance. / No unit is printed with the Ave/Max values. Only the axis reads Age (weeks).
Animal experiments were performed in a facility certified by the Association for Assessment and Accreditation of Laboratory Animal Care in compliance with animal policies approved by Pusan National University. The mouse work was performed under the study protocol PNU-2019-2181, as approved by the Institutional Animal Care and Use Committee. Lmna^G609G/609G mice were generated by timed mating of heterozygous Lmna^G609G/+ provided by Carlos López-Otín (Universidad de Oviedo, Asturias, Oviedo, Spain). SLC-D011 was mixed with dimethyl sulfoxide (DMSO) and phosphate-buffered saline (PBS). It was then intraperitoneally injected into mice (20 mg/kg twice per week from 5-week-old). SLC-D011 and lonafarnib were orally administrated to mice daily at a concentration of 10 mg/ml in monoolein-based solution. Lonafarnib was generously provided by Merck, the Progeria Research Foundation (PRF) and the PRF Lonafarnib Pre-clinical Drug Supply Program. Control mice were treated with monoolein-based solution alone in the same way. Lmna^G609G/609G mice were treated with clear chemical solution throughout the life span, starting from 5 weeks of age. Lmna^G609G/+ mice were treated via intraperitoneal and oral administrations, starting from 32 weeks of age.
Fig. S10. Or al administration of SLC-D011 suppresses premature aging features of LmnaG609G/+ mi c e . A.
Gross morphology of SLC-D011 treated Lmna G609G/+ mice at 36 weeks old. B. Oral administration of SLC-
D011 increases body weight s of LmnaG609G/+ mi c e (untreated: n=11; SLC-D011: n=12), * p<0.05. C. […]
intensity of H3K9me3 levels in lung, liver, and kidney tissues of age-matched Lmn a +/+ mouse, untreated
LamnG609G/+ mouse and two progerinin- treated LmnaG609G/+ mice (n = 2 independent experiments; one
Student’s t -test), **p < 0.001,*p< 0.05, N.S: not significant .AU, arbitrary units.
Fig. S12. […] A. SLC-D011, compar ed to lonafarnib, reduces […]

[1] = column after week 64 (head empty), IP injection with SLC-D011, ratio to week 32
[2] = week 32, IP injection with SLC-D011, ratio to week 32
[3] = week 33, IP injection with SLC-D011, ratio to week 32
[4] = week 34, IP injection with SLC-D011, ratio to week 32
[5] = week 35, IP injection with SLC-D011, ratio to week 32
[6] = week 36, IP injection with SLC-D011, ratio to week 32
[7] = week 37, IP injection with SLC-D011, ratio to week 32
[8] = week 38, IP injection with SLC-D011, ratio to week 32
[9] = week 39, IP injection with SLC-D011, ratio to week 32
[10] = week 40, IP injection with SLC-D011, ratio to week 32
[11] = week 41, IP injection with SLC-D011, ratio to week 32
[12] = week 42, IP injection with SLC-D011, ratio to week 32
[13] = week 43, IP injection with SLC-D011, ratio to week 32
[14] = week 44, IP injection with SLC-D011, ratio to week 32
[15] = week 45, IP injection with SLC-D011, ratio to week 32
[16] = week 46, IP injection with SLC-D011, ratio to week 32
[17] = week 47, IP injection with SLC-D011, ratio to week 32
[18] = week 48, IP injection with SLC-D011, ratio to week 32
[19] = week 49, IP injection with SLC-D011, ratio to week 32
[20] = week 50, IP injection with SLC-D011, ratio to week 32
[21] = week 51, IP injection with SLC-D011, ratio to week 32
[22] = week 52, IP injection with SLC-D011, ratio to week 32
[23] = week 53, IP injection with SLC-D011, ratio to week 32
[24] = week 54, IP injection with SLC-D011, ratio to week 32
[25] = week 55, IP injection with SLC-D011, ratio to week 32
[26] = week 56, IP injection with SLC-D011, ratio to week 32
[27] = week 57, IP injection with SLC-D011, ratio to week 32
[28] = week 58, IP injection with SLC-D011, ratio to week 32
[29] = week 59, IP injection with SLC-D011, ratio to week 32
[30] = week 60, IP injection with SLC-D011, ratio to week 32
[31] = week 61, IP injection with SLC-D011, ratio to week 32
[32] = week 62, IP injection with SLC-D011, ratio to week 32
[33] = week 63, IP injection with SLC-D011, ratio to week 32
[34] = week 64, IP injection with SLC-D011, ratio to week 32

CC1(C)Oc2cc3oc(=O)ccc3cc2C[C@@H]1OC/C=C/c1ccccc1 [SLC-D011]
Lmna G609G/+ body weight, Ave [1]: 0 | Lmna G609G/+ body weight [1]: 0 | Lmna G609G/+ body weight, Ave (oral administration, week 36, relative body weight): 1 | Lmna G609G/+ body weight, Ave (oral administration, week 38, relative body weight): 1.017 | Lmna G609G/+ body weight, Ave (oral administration, week 40, relative body weight): 1.063 | Lmna G609G/+ body weight, Ave (oral administration, week 42, relative body weight): 0.9995 | Lmna G609G/+ body weight, Ave (oral administration, week 44, relative body weight): 0.9298 | Lmna G609G/+ body weight, Ave (oral administration, week 46, relative body weight): 0.9013 | Lmna G609G/+ body weight, Ave (oral administration, week 48, relative body weight): 0.862 | Lmna G609G/+ body weight, Ave (oral administration, week 50, relative body weight): 0.8331 | Lmna G609G/+ body weight, Ave (oral administration, week 52, relative body weight): 0.7877 | Lmna G609G/+ body weight, Ave (oral administration, week 54, relative body weight): 0.7841 | Lmna G609G/+ body weight, Ave (oral administration, week 56, relative body weight): 0.7247 | Lmna G609G/+ body weight, Ave (oral administration, week 58, relative body weight): 0.7038 | Lmna G609G/+ body weight, Ave (oral administration, week 60, relative body weight): 0.6602 | Lmna G609G/+ body weight, Ave (oral administration, week 62, relative body weight): 0.5992 | Lmna G609G/+ body weight, Ave (oral administration, week 64, relative body weight): 0.3905 | Lmna G609G/+ body weight, Ave (oral administration, week 66, relative body weight): 0 | Lmna G609G/+ body weight, Ave [2]: 1 | Lmna G609G/+ body weight [2]: 1 | Lmna G609G/+ body weight, Ave [3]: 1.01 | Lmna G609G/+ body weight [3]: 1 and 1.038 | Lmna G609G/+ body weight, Ave [4]: 1.003 | Lmna G609G/+ body weight [4]: 1 and 0.9583 and 1.038 | Lmna G609G/+ body weight, Ave [5]: 0.9948 | Lmna G609G/+ body weight [5]: 1 and 0.9167 and 1.038 | Lmna G609G/+ body weight, Ave [6]: 0.9886 | Lmna G609G/+ body weight [6]: 1 and 0.9583 | Lmna G609G/+ body weight, Ave [7]: 0.9733 | Lmna G609G/+ body weight [7]: 1 and 0.9167 | Lmna G609G/+ body weight, Ave [8]: 0.9619 | Lmna G609G/+ body weight [8]: 0.9565 and 0.9167 and 1 | Lmna G609G/+ body weight, Ave [9]: 0.9549 | Lmna G609G/+ body weight [9]: 0.9565 and 0.9167 and 0.9615 | Lmna G609G/+ body weight, Ave [10]: 0.925 | Lmna G609G/+ body weight [10]: 0.913 and 0.875 and 0.9615 and 0.963 | Lmna G609G/+ body weight, Ave [11]: 0.925 | Lmna G609G/+ body weight [11]: 0.913 and 0.875 and 0.9615 and 0.963 | Lmna G609G/+ body weight, Ave [12]: 0.9069 | Lmna G609G/+ body weight [12]: 0.913 and 0.8333 and 0.9231 and 0.963 | Lmna G609G/+ body weight, Ave [13]: 0.9077 | Lmna G609G/+ body weight [13]: 0.913 and 0.875 and 0.9231 and 0.9259 | Lmna G609G/+ body weight, Ave [14]: 0.8732 | Lmna G609G/+ body weight [14]: 0.8696 and 0.7917 and 0.9231 and 0.9259 | Lmna G609G/+ body weight, Ave [15]: 0.8778 | Lmna G609G/+ body weight [15]: 0.8696 and 0.8333 and 0.9231 and 0.8889 | Lmna G609G/+ body weight, Ave [16]: 0.8769 | Lmna G609G/+ body weight [16]: 0.8696 and 0.7917 and 0.9615 and 0.8889 | Lmna G609G/+ body weight, Ave [17]: 0.8478 | Lmna G609G/+ body weight [17]: 0.8261 and 0.7917 and 0.9231 and 0.8519 | Lmna G609G/+ body weight, Ave [18]: 0.8359 | Lmna G609G/+ body weight [18]: 0.8261 and 0.75 and 0.9231 and 0.8519 | Lmna G609G/+ body weight, Ave [19]: 0.8036 | Lmna G609G/+ body weight [19]: 0.7826 and 0.75 and 0.8846 and 0.7778 | Lmna G609G/+ body weight, Ave [20]: 0.8111 | Lmna G609G/+ body weight [20]: 0.7826 and 0.7917 and 0.8846 and 0.7778 | Lmna G609G/+ body weight, Ave [21]: 0.8111 | Lmna G609G/+ body weight [21]: 0.7826 and 0.7917 and 0.8846 and 0.7778 | Lmna G609G/+ body weight, Ave [22]: 0.7901 | Lmna G609G/+ body weight [22]: 0.7826 and 0.75 and 0.8462 | Lmna G609G/+ body weight, Ave [23]: 0.7931 | Lmna G609G/+ body weight [23]: 0.7826 and 0.7917 and 0.8462 | Lmna G609G/+ body weight, Ave [24]: 0.7747 | Lmna G609G/+ body weight [24]: 0.7391 and 0.7917 and 0.8077 | Lmna G609G/+ body weight, Ave [25]: 0.7712 | Lmna G609G/+ body weight [25]: 0.7391 and 0.7917 and 0.8077 | Lmna G609G/+ body weight, Ave [26]: 0.7636 | Lmna G609G/+ body weight [26]: 0.7391 and 0.75 and 0.8077 | Lmna G609G/+ body weight, Ave [27]: 0.7611 | Lmna G609G/+ body weight [27]: 0.7391 and 0.75 and 0.8077 | Lmna G609G/+ body weight, Ave [28]: 0.746 | Lmna G609G/+ body weight [28]: 0.6957 and 0.6667 and 0.8077 | Lmna G609G/+ body weight, Ave [29]: 0.6892 | Lmna G609G/+ body weight [29]: 0.7391 and 0 and 0.8077 | Lmna G609G/+ body weight, Ave [30]: 0.6894 | Lmna G609G/+ body weight [30]: 0.6957 and 0.7692 | Lmna G609G/+ body weight, Ave [31]: 0.6156 | Lmna G609G/+ body weight [31]: 0.6087 and 0.7692 | Lmna G609G/+ body weight, Ave [32]: 0.5947 | Lmna G609G/+ body weight [32]: 0 and 0.6923 | Lmna G609G/+ body weight, Ave [33]: 0.5548 | Lmna G609G/+ body weight [33]: 0.6923 | Lmna G609G/+ body weight, Ave [34]: 0.2637 | Lmna G609G/+ body weight [34]: 0.6154
